From PubChem BioAssay AID1259407 (Chemical Carcinogenesis Research Information System (CCRIS), 2018)
Active and inactive are the calls of the source. No rule for the calls is given here.

Tested on: CCRIS mutagenicity, Ames/micronucleus/aberration tests
Experiment: CCRIS mutagenicity studies
[1] = Test System: AMES SALMONELLA TYPHIMURIUM, Strain/Indicator: TA100, Metabolic Activation: NONE, Method: STANDARD PLATE
[2] = Test System: AMES SALMONELLA TYPHIMURIUM, Strain/Indicator: TA100, Metabolic Activation: RAT, LIVER, S-9, AROCLOR 1254, Method: PREINCUBATION
[3] = Test System: AMES SALMONELLA TYPHIMURIUM, Strain/Indicator: TA1537, Metabolic Activation: NONE, Method: STANDARD PLATE
[4] = Test System: AMES SALMONELLA TYPHIMURIUM, Strain/Indicator: TA98, Metabolic Activation: NONE, Method: STANDARD PLATE
[5] = Test System: AMES SALMONELLA TYPHIMURIUM, Strain/Indicator: TA98, Metabolic Activation: RAT, LIVER, S-9, AROCLOR 1254, Method: STANDARD PLATE
[6] = Test System: AMES SALMONELLA TYPHIMURIUM, Strain/Indicator: TA100, Metabolic Activation: RAT, LIVER, S-9, AROCLOR 1254, Method: STANDARD PLATE
[7] = Test System: AMES SALMONELLA TYPHIMURIUM, Strain/Indicator: TA1538, Metabolic Activation: NONE, Method: STANDARD PLATE

## CCCN(CCC)N=O
Test System: AMES SALMONELLA TYPHIMURIUM, Strain/Indicator: TA100, Metabolic Activation: HAMSTER, LIVER, S-9, Method: PREINCUBATION
  mutagenic call: active; positive
Test System: AMES SALMONELLA TYPHIMURIUM, Strain/Indicator: TA100, Metabolic Activation: HUMAN, LIVER, S-9, Method: PREINCUBATION
  mutagenic call: inactive; negative
Test System: AMES SALMONELLA TYPHIMURIUM, Strain/Indicator: TA100, Metabolic Activation: MOUSE, INTACT UROTHELIAL CELLS, Method: FLUCTUATION TEST
  mutagenic call: active; positive
[1]
  mutagenic call: inactive; negative
Test System: AMES SALMONELLA TYPHIMURIUM, Strain/Indicator: TA100, Metabolic Activation: PIG, LIVER, S-9, Method: PREINCUBATION
  mutagenic call: inactive; negative
Test System: AMES SALMONELLA TYPHIMURIUM, Strain/Indicator: TA100, Metabolic Activation: RABBIT, LIVER, S-9, Method: STANDARD PLATE
  mutagenic call: inactive; negative
Test System: AMES SALMONELLA TYPHIMURIUM, Strain/Indicator: TA100, Metabolic Activation: RABBIT, LUNG, S-9, Method: STANDARD PLATE
  mutagenic call: inactive; negative
Test System: AMES SALMONELLA TYPHIMURIUM, Strain/Indicator: TA100, Metabolic Activation: RABBIT, NASAL, S-9, Method: STANDARD PLATE
  mutagenic call: inactive; negative
Test System: AMES SALMONELLA TYPHIMURIUM, Strain/Indicator: TA100, Metabolic Activation: RAT, INTACT UROTHELIAL CELLS, Method: FLUCTUATION TEST
  mutagenic call: active; positive
[2]
  mutagenic call: active; positive
Test System: AMES SALMONELLA TYPHIMURIUM, Strain/Indicator: TA100, Metabolic Activation: RAT, LIVER, S-9, KC500 OR PHENOBARBITAL, Method: LIQUID SUSPENSION
  mutagenic call: active; positive
Test System: AMES SALMONELLA TYPHIMURIUM, Strain/Indicator: TA100, Metabolic Activation: RAT, LIVER, S-9, Method: PREINCUBATION
  mutagenic call: inactive; negative
Test System: AMES SALMONELLA TYPHIMURIUM, Strain/Indicator: TA100, Metabolic Activation: RAT, LIVER, S-9, Method: STANDARD PLATE
  mutagenic call: inactive; negative
Test System: AMES SALMONELLA TYPHIMURIUM, Strain/Indicator: TA100, Metabolic Activation: RAT, LUNG, S-9, Method: STANDARD PLATE
  mutagenic call: inactive; negative
Test System: AMES SALMONELLA TYPHIMURIUM, Strain/Indicator: TA100, Metabolic Activation: RAT, NASAL, S-9, Method: STANDARD PLATE
  mutagenic call: active; positive
Test System: AMES SALMONELLA TYPHIMURIUM, Strain/Indicator: TA102, Metabolic Activation: RAT, LIVER, S-9, AROCLOR 1254, Method: PREINCUBATION
  mutagenic call: active; positive
Test System: AMES SALMONELLA TYPHIMURIUM, Strain/Indicator: TA104, Metabolic Activation: RAT, LIVER, S-9, AROCLOR 1254, Method: PREINCUBATION
  mutagenic call: active; positive
Test System: AMES SALMONELLA TYPHIMURIUM, Strain/Indicator: TA1530, Metabolic Activation: RAT, LIVER, S-9, Method: STANDARD PLATE
  mutagenic call: active; positive
Test System: AMES SALMONELLA TYPHIMURIUM, Strain/Indicator: TA1535, Metabolic Activation: RAT, LIVER, S-9, AROCLOR 1254, Method: PREINCUBATION
  mutagenic call: active; positive
Test System: AMES SALMONELLA TYPHIMURIUM, Strain/Indicator: TA1535ER, Metabolic Activation: NONE, Method: STANDARD PLATE
  mutagenic call: inactive; negative
Test System: AMES SALMONELLA TYPHIMURIUM, Strain/Indicator: TA1975, Metabolic Activation: RAT, LIVER, S-9, AROCLOR 1254, Method: PREINCUBATION
  mutagenic call: active; positive
Test System: AMES SALMONELLA TYPHIMURIUM, Strain/Indicator: YG7104ER, Metabolic Activation: NONE, Method: STANDARD PLATE
  mutagenic call: active; positive
Test System: AMES SALMONELLA TYPHIMURIUM, Strain/Indicator: YG7108ER, Metabolic Activation: NONE, Method: STANDARD PLATE
  mutagenic call: active; positive
Test System: CHINESE HAMSTER V-79, Strain/Indicator: V-79/8-AZAGUANINE, Metabolic Activation: RAT, LIVER, S-15, PHENOBARBITAL, Method: STANDARD PLATE
  mutagenic call: active; positive
Test System: CHINESE HAMSTER V-79, Strain/Indicator: V-79/OUABAIN, Metabolic Activation: HAMSTER, HEPATOCYTES, Method: CELL-MEDIATED
  mutagenic call: active; positive

## O[As](O)O
End Point: IN VIVO MICRONUCLEUS, Test System: BONE MARROW POLYCHROMATIC ERYTHROCYTES, Species: MOUSE, Strain/Sex: C57BL/6/MALE, Route: IP INJECTION
  mutagenic call: active; positive

## CCN(CC)CCNc1ccc2ncn3c4ccc(O)cc4c(=O)c1c23
[3]
  mutagenic call: active; positive
Test System: AMES SALMONELLA TYPHIMURIUM, Strain/Indicator: TA1537, Metabolic Activation: S-9, Method: STANDARD PLATE
  mutagenic call: active; positive
Test System: CHINESE HAMSTER V-79, Strain/Indicator: V-79 (HGPRT)/6-THIOGUANINE, Metabolic Activation: NONE
  mutagenic call: active; positive

## Nc1ccc2cc(S(=O)(=O)O)c(N=Nc3ccc(N=Nc4ccccc4)cc3OCCO)c(O)c2c1
[4]
  mutagenic call: inactive; negative
[5]
  mutagenic call: active; positive
[1]
  mutagenic call: inactive; negative
[6]
  mutagenic call: active; positive
[7]
  mutagenic call: inactive; negative
Test System: AMES SALMONELLA TYPHIMURIUM, Strain/Indicator: TA1538, Metabolic Activation: RAT, LIVER, S-9, AROCLOR 1254, Method: STANDARD PLATE
  mutagenic call: active; positive

## O=[N+]([O-])c1cccc(NS(=O)(=O)c2cccc3cccnc23)c1
[4]
  mutagenic call: inactive; negative
[5]
  mutagenic call: inactive; negative
[1]
  mutagenic call: inactive; negative
[6]
  mutagenic call: inactive; negative
Test System: AMES SALMONELLA TYPHIMURIUM, Strain/Indicator: TA1535, Metabolic Activation: NONE, Method: STANDARD PLATE
  mutagenic call: inactive; negative
Test System: AMES SALMONELLA TYPHIMURIUM, Strain/Indicator: TA1535, Metabolic Activation: RAT, LIVER, S-9, AROCLOR 1254, Method: STANDARD PLATE
  mutagenic call: inactive; negative
[3]
  mutagenic call: inactive; negative
Test System: AMES SALMONELLA TYPHIMURIUM, Strain/Indicator: TA1537, Metabolic Activation: RAT, LIVER, S-9, AROCLOR 1254, Method: STANDARD PLATE
  mutagenic call: inactive; negative

## O=CNc1ccc(Oc2ccc(Cl)cc2Cl)cc1
[1]
  mutagenic call: inactive; negative
Test System: AMES SALMONELLA TYPHIMURIUM, Strain/Indicator: TA100, Metabolic Activation: RAT, LIVER, S-9, KANECLOR 500, Method: STANDARD PLATE
  mutagenic call: active; positive

## O=[N+]([O-])c1cccc2[nH]c3ccccc3c12
[4]
  mutagenic call: active; positive
Test System: AMES SALMONELLA TYPHIMURIUM, Strain/Indicator: TA98, Metabolic Activation: RAT, LIVER, S-9, PHENOBARBITAL, Method: STANDARD PLATE
  mutagenic call: active; positive
[3]
  mutagenic call: inactive; negative
Test System: AMES SALMONELLA TYPHIMURIUM, Strain/Indicator: TA1537, Metabolic Activation: RAT, LIVER, S-9, PHENOBARBITAL, Method: STANDARD PLATE
  mutagenic call: inactive; negative
[7]
  mutagenic call: active; positive
Test System: AMES SALMONELLA TYPHIMURIUM, Strain/Indicator: TA1538, Metabolic Activation: RAT, LIVER, S-9, PHENOBARBITAL, Method: STANDARD PLATE
  mutagenic call: active; positive
Test System: AMES SALMONELLA TYPHIMURIUM, Strain/Indicator: TA1977, Metabolic Activation: NONE, Method: STANDARD PLATE
  mutagenic call: inactive; negative
Test System: AMES SALMONELLA TYPHIMURIUM, Strain/Indicator: TA1977, Metabolic Activation: RAT, LIVER, S-9, PHENOBARBITAL, Method: STANDARD PLATE
  mutagenic call: inactive; negative

## Cn1c(N=[N+]=[N-])nc2ccc3ccccc3c21
Test System: AMES SALMONELLA TYPHIMURIUM, Strain/Indicator: TA98(1,8-DNP6), Metabolic Activation: NONE, Method: STANDARD PLATE
  mutagenic call: active; positive
[4]
  mutagenic call: active; positive

## Cc1cnc2ccc3c(ncn3C)c2n1
Test System: AMES SALMONELLA TYPHIMURIUM, Strain/Indicator: TA98, Metabolic Activation: NONE, Method: PREINCUBATION
  mutagenic call: inactive; negative
Test System: AMES SALMONELLA TYPHIMURIUM, Strain/Indicator: TA98, Metabolic Activation: RAT, LIVER, S-9, AROCLOR 1254, Method: PREINCUBATION
  mutagenic call: inactive; negative
Test System: AMES SALMONELLA TYPHIMURIUM, Strain/Indicator: TA100, Metabolic Activation: NONE, Method: PREINCUBATION
  mutagenic call: inactive; negative
[2]
  mutagenic call: inactive; negative
